From ChEMBL document CHEMBL1201862, “PubChem BioAssay data set” (2004)
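Interpolation was linear, between the two tested concentrations surrounding the appropriate level; five concentrations were tested over 48 hours in 96-well plates. Abbreviation: GI50, concentration required for 50% inhibition of growth.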 Calls of active or inactive are those of the source. No stated cut-off is given here; in the data, active = GI50 up to about 1.1 µM and inactive = higher.

What was measured:
Test in all cases: DTP human tumour cell line panel, 48 h
[1] = system: HOP-92
[2] = system: SR
[3] = system: RXF 393
[4] = system: OVCAR-3
[5] = system: M19-MEL
[6] = system: UACC-257
[7] = system: UO-31
[8] = system: CCRF-CEM
[9] = system: HOP-62
[10] = system: M14
[11] = system: DMS-273
[12] = system: Malme-3M
[13] = system: SW-620
[14] = system: CAKI-1
[15] = system: SNB-75
[16] = system: SF-295
[17] = system: SK-MEL-28
[18] = system: COLO 205
[19] = system: UACC-62
[20] = system: SNB-19
[21] = system: TK-10
[22] = system: OVCAR-8
[23] = system: HL-60
[24] = system: RPMI-8226
[25] = system: U-251
[26] = system: LXFL 529
[27] = system: A549
[28] = system: KM-20L2
[29] = system: SF-268
[30] = system: 786-0
[31] = system: ACHN
[32] = system: IGROV-1
[33] = system: OVCAR-5
[34] = system: SK-MEL-5
[35] = system: RXF 631
[36] = system: HCT-116
[37] = system: EKVX
[38] = system: SK-OV-3
[39] = system: SN12C
[40] = system: MOLT-4
[41] = system: NCI-H23
[42] = system: K562
[43] = system: HOP-18
[44] = system: DMS-114
[45] = system: HCT-15
[46] = system: OVCAR-4
[47] = system: SF-539
[48] = system: NCI-H226
[49] = system: HCC 2998
[50] = system: SK-MEL-2
[51] = system: SNB-78
[52] = system: A498
[53] = system: KM12
[54] = system: HT-29
[55] = system: NCI-H460
[56] = system: LOX IMVI
[57] = system: NCI-H522
[58] = system: XF498

Question: How did the GI50 [1] turn out when `COC(=O)C(CC(=O)Nc1ccc(Cl)c(Cl)c1)C(=O)C(=O)Nc1ccc(Cl)c(Cl)c1` (stereo unspecified) was run?
Answer: > 100 µM (inactive)

Question: What about the GI50 [2] of the same compound?
Answer: 33.3 µM (inactive)

Question: What about the GI50 [3] of the same compound?
Answer: > 100 µM (inactive)

Question: And the GI50 [4]?
Answer: > 100 µM (inactive)

Question: And the GI50 [5]?
Answer: > 100 µM (inactive)

Question: What about the GI50 [6] of the same compound?
Answer: > 100 µM (inactive)

Question: What about the GI50 [7] of the same compound?
Answer: > 100 µM (inactive)

Question: And the GI50 [8]?
Answer: > 100 µM (inactive)

Question: What about the GI50 [9] of the same compound?
Answer: > 100 µM (inactive)

Question: And the GI50 [10]?
Answer: > 100 µM (inactive)

Question: What about the GI50 [11] of the same compound?
Answer: > 100 µM (inactive)

Question: What about the GI50 [12] of the same compound?
Answer: > 100 µM (inactive)

Question: What about the GI50 [13] of the same compound?
Answer: > 100 µM (inactive)

Question: And the GI50 [14]?
Answer: > 100 µM (inactive)

Question: And the GI50 [15]?
Answer: > 100 µM (inactive)

Question: What about the GI50 [16] of the same compound?
Answer: > 100 µM (inactive)

Question: And the GI50 [17]?
Answer: > 100 µM (inactive)

Question: And the GI50 [18]?
Answer: > 100 µM (inactive)

Question: What about the GI50 [19] of the same compound?
Answer: > 100 µM (inactive)

Question: What about the GI50 [20] of the same compound?
Answer: > 100 µM (inactive)

Question: What about the GI50 [21] of the same compound?
Answer: > 100 µM (inactive)

Question: What about the GI50 [22] of the same compound?
Answer: > 100 µM (inactive)

Question: What about the GI50 [23] of the same compound?
Answer: > 100 µM (inactive)

Question: And the GI50 [24]?
Answer: > 100 µM (inactive)

Question: And the GI50 [25]?
Answer: > 100 µM (inactive)

Question: What about the GI50 [26] of the same compound?
Answer: > 100 µM (inactive)

Question: And the GI50 [27]?
Answer: > 100 µM (inactive)

Question: What about the GI50 [28] of the same compound?
Answer: > 100 µM (inactive)

Question: What about the GI50 [29] of the same compound?
Answer: > 100 µM (inactive)

Question: And the GI50 [30]?
Answer: > 100 µM (inactive)

Question: And the GI50 [31]?
Answer: > 100 µM (inactive)

Question: What about the GI50 [32] of the same compound?
Answer: > 100 µM (inactive)

Question: What about the GI50 [33] of the same compound?
Answer: > 100 µM (inactive)

Question: What about the GI50 [34] of the same compound?
Answer: > 100 µM (inactive)

Question: And the GI50 [35]?
Answer: > 100 µM (inactive)

Question: What about the GI50 [36] of the same compound?
Answer: > 100 µM (inactive)

Question: What about the GI50 [37] of the same compound?
Answer: > 100 µM (inactive)

Question: And the GI50 [38]?
Answer: > 100 µM (inactive)

Question: What about the GI50 [39] of the same compound?
Answer: > 100 µM (inactive)

Question: And the GI50 [40]?
Answer: 94.6 µM (inactive)

Question: And the GI50 [41]?
Answer: > 100 µM (inactive)

Question: What about the GI50 [42] of the same compound?
Answer: > 100 µM (inactive)

Question: And the GI50 [43]?
Answer: 50.7 µM (inactive)

Question: What about the GI50 [44] of the same compound?
Answer: > 100 µM (inactive)

Question: What about the GI50 [45] of the same compound?
Answer: > 100 µM

Question: And the GI50 [46]?
Answer: > 100 µM (inactive)

Question: What about the GI50 [47] of the same compound?
Answer: > 100 µM (inactive)

Question: What about the GI50 [48] of the same compound?
Answer: > 100 µM (inactive)

Question: What about the GI50 [49] of the same compound?
Answer: > 100 µM (inactive)

Question: And the GI50 [50]?
Answer: > 100 µM (inactive)

Question: What about the GI50 [51] of the same compound?
Answer: > 100 µM (inactive)

Question: And the GI50 [52]?
Answer: > 100 µM (inactive)

Question: And the GI50 [53]?
Answer: > 100 µM (inactive)

Question: What about the GI50 [54] of the same compound?
Answer: > 100 µM (inactive)

Question: What about the GI50 [55] of the same compound?
Answer: > 100 µM (inactive)

Question: What about the GI50 [56] of the same compound?
Answer: > 100 µM (inactive)

Question: And the GI50 [57]?
Answer: > 100 µM (inactive)

Question: With `COc1ccc(C2=NNC(=O)OC2c2ccccc2)cc1` (stereo unspecified) as the compound, how does the GI50 [1] read?
Answer: 43.6 µM (inactive)

Question: And the GI50 [2]?
Answer: 55.2 µM (inactive)

Question: What about the GI50 [3] of the same compound?
Answer: 38 µM (inactive)

Question: And the GI50 [4]?
Answer: 81.8 µM (inactive)

Question: And the GI50 [5]?
Answer: 55.7 µM (inactive)

Question: And the GI50 [6]?
Answer: 28.9 µM (inactive)

Question: What about the GI50 [7] of the same compound?
Answer: > 100 µM (inactive)

Question: And the GI50 [8]?
Answer: 48.3 µM (inactive)

Question: And the GI50 [9]?
Answer: > 100 µM (inactive)

Question: What about the GI50 [10] of the same compound?
Answer: 50.7 µM (inactive)

Question: And the GI50 [12]?
Answer: 52.8 µM (inactive)

Question: What about the GI50 [13] of the same compound?
Answer: 38.9 µM (inactive)

Question: What about the GI50 [14] of the same compound?
Answer: 92.3 µM (inactive)

Question: And the GI50 [15]?
Answer: 28.1 µM (inactive)

Question: What about the GI50 [16] of the same compound?
Answer: 22.4 µM (inactive)

Question: What about the GI50 [17] of the same compound?
Answer: > 100 µM (inactive)

Question: And the GI50 [18]?
Answer: 78.2 µM (inactive)

Question: What about the GI50 [19] of the same compound?
Answer: 59.2 µM (inactive)

Question: And the GI50 [58]?
Answer: 74 µM (inactive)

Question: And the GI50 [20]?
Answer: 67.1 µM (inactive)

Question: What about the GI50 [21] of the same compound?
Answer: > 100 µM (inactive)

Question: And the GI50 [22]?
Answer: > 100 µM (inactive)

Question: What about the GI50 [23] of the same compound?
Answer: 67.5 µM (inactive)

Question: What about the GI50 [24] of the same compound?
Answer: > 100 µM (inactive)

Question: And the GI50 [25]?
Answer: > 100 µM (inactive)

Question: What about the GI50 [26] of the same compound?
Answer: 70 µM (inactive)

Question: What about the GI50 [27] of the same compound?
Answer: 51.5 µM (inactive)

Question: And the GI50 [28]?
Answer: 41.2 µM (inactive)

Question: What about the GI50 [29] of the same compound?
Answer: 72.6 µM (inactive)

Question: And the GI50 [30]?
Answer: > 100 µM (inactive)

Question: What about the GI50 [31] of the same compound?
Answer: > 100 µM (inactive)

Question: What about the GI50 [32] of the same compound?
Answer: > 100 µM (inactive)

Question: What about the GI50 [33] of the same compound?
Answer: > 100 µM (inactive)

Question: What about the GI50 [35] of the same compound?
Answer: > 100 µM (inactive)

Question: What about the GI50 [36] of the same compound?
Answer: > 100 µM (inactive)

Question: And the GI50 [37]?
Answer: 76 µM (inactive)

Question: And the GI50 [39]?
Answer: > 100 µM (inactive)

Question: What about the GI50 [40] of the same compound?
Answer: 43.8 µM (inactive)

Question: What about the GI50 [41] of the same compound?
Answer: 53.5 µM (inactive)

Question: What about the GI50 [42] of the same compound?
Answer: 26.7 µM (inactive)

Question: What about the GI50 [43] of the same compound?
Answer: 57.9 µM (inactive)

Question: What about the GI50 [44] of the same compound?
Answer: 71.8 µM (inactive)

Question: What about the GI50 [45] of the same compound?
Answer: 37.7 µM

Question: And the GI50 [46]?
Answer: > 100 µM (inactive)

Question: What about the GI50 [47] of the same compound?
Answer: > 100 µM (inactive)

Question: What about the GI50 [48] of the same compound?
Answer: 34.3 µM (inactive)

Question: What about the GI50 [49] of the same compound?
Answer: 34.1 µM (inactive)

Question: What about the GI50 [50] of the same compound?
Answer: 36.1 µM (inactive)

Question: And the GI50 [51]?
Answer: 95.7 µM (inactive)

Question: And the GI50 [52]?
Answer: 49.4 µM (inactive)

Question: And the GI50 [53]?
Answer: 40.9 µM (inactive)

Question: What about the GI50 [54] of the same compound?
Answer: 38 µM (inactive)

Question: What about the GI50 [55] of the same compound?
Answer: 53.2 µM (inactive)

Question: What about the GI50 [56] of the same compound?
Answer: 55 µM (inactive)
